Assays:
Format in all cases: in vivo
[1] = system: rice (Oryza sativa L.) (var.: Nihonbare); assay: Test Example 3, paddy field pot, transplanted rice; details: applied 4th day after transplantation, 20th to 23rd day after application, read-out: Growth inhibition rate (%) Rice
Source text: (§1) Paddy field soil was put into a 1/1,000,000 hectare pot, and seeds of barnyardgrass (Echinochloa oryzicola vasing.) and Japanese bulrush (Scirpus juncoides) were sown and lightly covered with soil. Then, pot was left to stand in a greenhouse in a state irrigated to a water depth of from 0.5 to 1 cm, and next day or two days later, tubers of Japanese ribbon waparo (Sagittaria pygmaea) were planted. Then, the irrigated water depth was maintained to be from 3 to 4 cm, and when barnyardgrass and Japanese bulrush reached 0.5 leaf stage, and Japanese ribbon waparo reached primary leaf stage, a water diluted solution of a wettable powder or an emulsifiable concentrate of the compound of the present invention prepared in accordance with a conventional preparation method, was uniformly dropwise applied by a pipette so that the amount of active ingredients would be a prescribed amount. Further, paddy field soil was put into a 1/1,000,000 pot, followed by soil puddling to an irrigated water depth of from 3 to 4 cm. Next day, rice (Oryza sativa L.) (var.: Nihonbare) of two leaf stage was transplanted in a transplantation depth of 3 cm. On the 4th day after transplantation, the compound of the present invention was applied in the same manner as described above.
(§2) On the 13th to 17th day after application, the state of growth of barnyardgrass, Japanese bulrush and Japanese ribbon waparo was visually observed, and on the 20th to 23rd day after application, the state of growth of rice was visually observed, and the herbicidal effect was evaluated by a growth inhibition rate (%) of 0 (equivalent to the non-treated area) to 100% (complete kill).

[2] = system: barnyardgrass (Echinochloa oryzicola vasing.); assay: Test Example 3, paddy field pot, application to irrigated water; details: applied at 0.5 leaf stage, 13th to 17th day after application, read-out: Growth inhibition rate (%) barnyard grass
Source text: as §1, §2

[3] = system: Japanese ribbon waparo (Sagittaria pygmaea); assay: as above; details: applied at primary leaf stage, 13th to 17th day after application, read-out: Growth inhibition rate (%) Japanese ribbon waparo
Source text: as §1, §2

[4] = system: Japanese bulrush (Scirpus juncoides); assay: as above; details: Schoenoplectiella juncoides, applied at 0.5 leaf stage, 13th to 17th day after application, read-out: Growth inhibition rate (%) Japanese bulrush
Source text: as §1, §2

[5] = system: barnyardgrass (Echinochloa crus-galli L.); assay: Test Example 1, foliar treatment in upland pots; details: 20th to 22nd day after application, visual, read-out: Growth inhibition rate (%) Barnyardgrass
Source text: (§3) Upland field soil was put into a 1/170,000 hectare pot, and seeds of various plants were sown. When the respective plants reached predetermined leaf stage ((1) barnyardgrass (Echinochloa crus-galli L.): 1.2 to 3.0 leaf stage, (2) crabgrass (Digitaria sanguinalis L.): 1.0 to 3.0 leaf stage, (3) green foxtail (Setaria viridis L.): 1.5 to 3.0 leaf stage, (4) redroot pigweed (Amaranthus retroflexus L.): cotyledon stage to 1.5 leaf stage, (5) prickly sida (Sida spinosa L.): cotyledon stage to 2.0 leaf stage, (6) velvetleaf (Abutilon theophrasti MEDIC.): cotyledon stage to 1.3 leaf stage, (7) rice (Oryza sativa L.): 1.2 to 2.5 leaf stage, (8) corn (Zea mays L.): 2.0 to 3.3 leaf stage, (9) soybean (Glycine max Merr.): primary leaf stage to 0.3 leaf stage) and wheat (Triticum spp.): 2.0 to 3.0 leaf stage, wettable powders or emulsifiable concentrates of the compounds of the present invention prepared in accordance with a conventional preparation method, were weighed so that the active ingredients became the prescribed amounts, and diluted with water in an amount corresponding to 500 liter per 1 hectare (containing 0.1 vol % of an agricultural spreader (“KUSARINOH”, manufactured by NIHON NOHYAKU CO., LTD.)). The spray solutions thus prepared were applied for foliar treatment by a small sprayer.
(§4) On the 20th to 22nd day after application, the state of growth of the respective plants was visually observed, and the herbicidal effect was evaluated by a growth inhibition rate (%) of 0 (equivalent to the non-treated area) to 100% (complete kill).

[6] = system: corn (Zea mays L.); assay: Test Example 1, foliar treatment in upland pots; details: 20th to 22nd day after application, visual, read-out: Growth inhibition rate (%) Corn
Source text: as §3, §4

[7] = system: green foxtail (Setaria viridis L.); assay: Test Example 1, foliar treatment in upland pots; details: 20th to 22nd day after application, visual, read-out: Growth inhibition rate (%) Green foxtail
Source text: as §3, §4

[8] = system: wheat (Triticum spp.); assay: Test Example 1, foliar treatment in upland pots; details: 20th to 22nd day after application, visual, read-out: Growth inhibition rate (%) Wheat
Source text: as §3, §4

[9] = system: velvetleaf (Abutilon theophrasti MEDIC.); assay: Test Example 1, foliar treatment in upland pots; details: 20th to 22nd day after application, visual, read-out: Growth inhibition rate (%) Velvetleaf
Source text: as §3, §4

[10] = system: rice (Oryza sativa L.); assay: Test Example 1, foliar treatment in upland pots; details: 20th to 22nd day after application, visual, read-out: Growth inhibition rate (%) Rice
Source text: as §3, §4

[11] = system: prickly sida (Sida spinosa L.); assay: Test Example 1, foliar treatment in upland pots; details: 20th to 22nd day after application, visual, read-out: Growth inhibition rate (%) Prickly sida
Source text: as §3, §4

[12] = system: redroot pigweed (Amaranthus retroflexus L.); assay: Test Example 1, foliar treatment in upland pots; details: 20th to 22nd day after application, visual, read-out: Growth inhibition rate (%) Redroot pigweed
Source text: as §3, §4

[13] = system: crabgrass (Digitaria sanguinalis L.); assay: Test Example 1, foliar treatment in upland pots; details: 20th to 22nd day after application, visual, read-out: Growth inhibition rate (%) Crabgrass
Source text: as §3, §4

[14] = system: soybean (Glycine max Merr.); assay: Test Example 1, foliar treatment in upland pots; details: 20th to 22nd day after application, visual, read-out: Growth inhibition rate (%) Soybean
Source text: as §3, §4

[15] = system: barnyardgrass (Echinochloa crus-galli L.); assay: Test Example 2, soil application on the day after sowing; details: 21st to 22nd day after application, visual, read-out: Growth inhibition rate (%) Barnyardgrass
Source text: (§5) Upland field soil was put into a 1/170,000 hectare pot, and seeds of various plants (barnyardgrass (Echinochloa crus-galli L.), crabgrass (Digitaria sanquinalis L.), green foxtail (Setaria viridis L.), redroot pigweed (Amaranthus retroflexus L.), prickly sida (Sida spinosa L.), velvetleaf (Abutilon theophrasti MEDIC.), rice (Oryza sativa L.), corn (Zea mays L.), soybean (Glycine max Merr.)) and wheat (Triticum spp.) were sown. On the day after sowing, wettable powders or emulsifiable concentrates of the compounds of the present invention prepared in accordance with a conventional preparation method, were weighed so that the active ingredients became the prescribed amounts, and diluted with water in an amount corresponding to 500 liter per 1 hectare, followed by soil application with a small sprayer.
(§6) On the 21st to 22nd day after the application, the state of growth of the respective plants was visually observed, and the herbicidal effect was evaluated by a growth inhibition rate (%) of from 0 (equivalent to the non-treated area) to 100% (complete kill).

[16] = system: corn (Zea mays L.); assay: as above; details: 21st to 22nd day after application, visual, read-out: Growth inhibition rate (%) Corn
Source text: as §5, §6

[17] = system: crabgrass (Digitaria sanquinalis L.); assay: as above; details: 21st to 22nd day after application, visual, read-out: Growth inhibition rate (%) Crabgrass
Source text: as §5, §6

[18] = system: green foxtail (Setaria viridis L.); assay: as above; details: 21st to 22nd day after application, visual, read-out: Growth inhibition rate (%) Green foxtail
Source text: as §5, §6

[19] = system: wheat (Triticum spp.); assay: as above; details: 21st to 22nd day after application, visual, read-out: Growth inhibition rate (%) Wheat
Source text: as §5, §6

[20] = system: velvetleaf (Abutilon theophrasti MEDIC.); assay: as above; details: 21st to 22nd day after application, visual, read-out: Growth inhibition rate (%) Velvetleaf
Source text: as §5, §6

[21] = system: soybean (Glycine max Merr.); assay: as above; details: 21st to 22nd day after application, visual, read-out: Growth inhibition rate (%) Soybean
Source text: as §5, §6

[22] = system: rice (Oryza sativa L.); assay: as above; details: 21st to 22nd day after application, visual, read-out: Growth inhibition rate (%) Rice
Source text: as §5, §6

[23] = system: prickly sida (Sida spinosa L.); assay: as above; details: 21st to 22nd day after application, visual, read-out: Growth inhibition rate (%) Prickly sida
Source text: as §5, §6

[24] = system: redroot pigweed (Amaranthus retroflexus L.); assay: as above; details: 21st to 22nd day after application, visual, read-out: Growth inhibition rate (%) Redroot pigweed
Source text: as §5, §6

Row | SMILES | inhibition at 63 g/ha [1] [%] | inhibition at 63 g/ha [2] [%] | inhibition at 63 g/ha [3] [%] | inhibition at 63 g/ha [4] [%] | inhibition at 7 g/ha [5] [%] | inhibition at 7 g/ha [7] [%] | inhibition at 7 g/ha [8] [%] | inhibition at 7 g/ha [9] [%] | inhibition at 7 g/ha [10] [%] | inhibition at 7 g/ha [12] [%] | inhibition at 7 g/ha [13] [%] | other results
1 | CCn1ncc(C(=O)c2ccc(S(C)(=O)=O)c(C(=O)OC)c2C)c1OC(C)OC(=O)OC (centres unmarked) [Compound No. 2-2, Methyl 3-(5-(1-(methoxycarbonyloxy)ethoxy)-1-ethyl-1H-pyrazole-4-carbonyl)-2-methyl-6-(methylsulfonyl)benzoate] | 80 | 100 | 90 | 80 | 98 | 80 | 0 | 95 | 50 | 98 | 80 | inhibition at 7 g/ha [6]: 0%; inhibition at 7 g/ha [11]: 70%
2 | COCc1c(S(C)(=O)=O)ccc(C(=O)c2cnn(C)c2OC(C)OC(=O)OC)c1C (centres unmarked) [Compound No. 1-3, 1-(4-(3-(Methoxymethyl)-2-methyl-4-(methylsulfonyl)benzoyl)-1-methyl-1H-pyrazol-5-yloxy)ethyl methyl carbonate] | 40 | 100 | 70 | 70 | 90 | 80 | 0 | 75 | 60 | 80 | 95 | inhibition at 7 g/ha [14]: 70%; inhibition at 250 g/ha [15]: 98%; inhibition at 250 g/ha [16]: 20%; inhibition at 250 g/ha [17]: 98%; inhibition at 250 g/ha [18]: 98%; inhibition at 250 g/ha [19]: 10%; inhibition at 250 g/ha [20]: 100%; inhibition at 250 g/ha [21]: 60%; inhibition at 250 g/ha [22]: 98%; inhibition at 250 g/ha [23]: 95%; inhibition at 250 g/ha [24]: 98%

Reference: US8466089B2, “Pyrazole compounds, process for their production and herbicides containing them” (Ishihara Sangyo Kaisha, Ltd., priority 2008, dated 2013)
